Laboratory results as given in US20080269179A1, “Use of Megestrol Acetate for the Treatment of Obstructive Pulmonary Diseases” (priority 2005, published 2008).

Columns and labels:
[1] = test system: rat myocardial infarct model; test: Mortality / survival in rat myocardial infarct model of heart failure; type: in vivo, rats
Protocol: (§1) In another study, a similar rat myocardial infarct model as above was used in order to assess the therapeutic potential of MA in heart failure.
(§2) Methods: From day 14 after surgery (LAD occlusion), rats received frusemide. On day 42, rats were randomized to receive 26 weeks treatment with placebo (PL: n=38), ramipril (n=38, 1 mg/kg/d), the standard MA formulation (MA-I: n=37) or a new nanocristal MA formulation (MA-II: n=40, both 100 mg/kg/d) until sacrifice, Cardiac function was assessed using echocardiography. Additionally, body composition was analyzed boy NMR-scanning, and in a subgroup cardiac function was assessed by MRI scanning and invasive hemodynamics.

[2] = test system: lung of infarction surgery rats; test: Histopathology of the lungs in rat infarct model; type: in vivo, Male Wistar-rats
Protocol: (§3) An animal study was carried out, wherein a ligation of the left coronary artery was performed in 140 animals. For control 20 animals were operated without coronary ligature (sham-surgery). Two weeks after surgery, therapy was started. Therefore, the animals were treated with a diuretic (furosemide, in average 10 per kg in drinking water). After six weeks double-blind randomised therapy with either placebo, old or new megestrol acetate (from day 42 on using gavage, 100 mg per kg) or ACE-inhibitor (Ramipril®, 1 mg per kg per day) was started. The infarct groups consisted of 38 animal each for Ramipril® and placebo, 37 for MA-1 and 40 for MA-II, as well as 5 animals per sham group. During the therapy animals were weighed twice a week. On day 224 after surgery animals were sacrificed and the lung was analyzed regarding weight and histopathology.
(§4) The animals underwent surgical treatment at a weight of about 210-220 g. In order to produce a heart insufficiency the inventors performed the surgical treatment in accordance with an infarction model that was already used in several prior studies. The heart infarction is produced according to a slightly modified method described by Selye et al. [Selye H, Bajusz E, Grassos S, Mendel P. Simple techniques for the surgical occlusion of coronary vessels in the rat. Angiology 1960; 11: 398-407] by ligation of the LAD.
(§5) Each rat was anaesthetised by i.p. chloralhydrate (Merck, Darmstadt, Germany) and was subsequently incubated with a PE-catheter (1.2 mm diameter) and respirated using a Rodent-respirator V5K6 (NarcoBio Systems, Houston, Tex., USA). During the whole operation an ECG was performed as control. The thorax was opened, the heart was prepared and a ligature using Ethibond-suture material 7/0 (Ethicon GmbH Norderstedt, Germany) was made in position of the left coronary artery (LAD). Since the coronary arteries during this process can not be viewed by the naked eye, the orientation occurred anatomically based on the position of the heart and the visible coronary veins. The success of the infarction could be visually verified based on the occurring paleness, cyanosis and mobility distortion. Subsequently, the thorax was closed. The respiration was ended, once a stable ECG was reached. 20 rats were used as control animals and were surgically treated in the same manner as the infarction animals. No coronary ligature was introduced in these animals (sham-surgery).
After the surgery, the animals were controlled and the weight was analysed twice a week during the whole study. From day 14 on, the animals received furosemide, accompanied from day 42 on with either placebo, ACE-inhibitor, MA-I or MA-TI. On day […] post-surgery the animals were randomised and segregated into the respective groups. During therapy animals were weighted twice a week and on day 224 post-surgery animals were sacrificed to analyze organs.
MA-I, MA-II, ACE-inhibitor (Ramipril®) or control substances were administered to the animals via gavage. Depending on the time of surgery, the animals were gavaged stating from week six after the in infarction surgery once a day, whereby the amount of gavage was adjusted to the weight (100 mg MA-I/kg body weight per day, 1 ml solution contains 40 mg MA-I or MA-II or placebo, respectively).
In the 32st week post-surgery, the surviving animals were anaesthetised using chloralhydrate i.p. […] body weight (Sigma-Aldrich Chemie GmbH, Deisenhofen, Germany). Following the preparation of the subscapular brown fatty tissue, lapratomisation was performed and blood was drawn from the aorta abdominalis into EDTA-flushed 10 ml syringes (Roth, Karlsruhe, Germany) and added to pre-chilled 12 ml-tubes (Sarstedt, Nümbrecht, Germany). The following parts were removed completely or partially: lung, heart, liver, kidneys, renal glands, inguinal fatty tissue, epididymal fatty tissue, gastrocnemius, and brain. […]

[3] = Body weight, body composition (NMR-scanning) and tibia length in rat myocardial infarct model; type: in vivo, rats; details: 26 weeks treatment
Protocol: as §1, §2

[4] = test system: lung of infarction surgery rats; test: Lung wet weight and amount of liquid in the lung in rat infarct model; type: in vivo, Male Wistar-rats
Protocol: as §3
The animals underwent surgical treatment at a weight of about 210-220 g. In order to produce a heart insufficiency the inventors performed the surgical treatment in accordance with an infarction model that was already used in several prior studies. […]
(§6) After the surgery, the animals were controlled and the weight was analysed twice a week during the whole study. […]

[5] = Weight determinations in rat infarct model of chronic heart insufficiency; type: in vivo, Male Wistar-rats; details: day 224 after surgery
Protocol: as §3
Male Wistar-rats (Dimed GmbH, Schönwalde, Germany) were held in an environment controlled animal facility having a constant temperature of 23° C. in a 12 hour day-night-cycle.
as §4
as §5, with “The respiration was ended, once a stable ECG was reached. 20 rats were used as control animals and were surgically treated in the same manner as the infarction animals. No coronary ligature was introduced in these animals (sham-surgery).” left out
as §6
During the progression of both studies; the animals were weight-determined twice a week, starting from the date of surgery (laboratory balance model CS2000. Ohaus Corporation, Pine Brook, N.J., USA). The results were calculated corresponding to the post-surgical day of the respective animal. […]

[6] = test system: rat myocardial infarct model; test: Cardiac function (echocardiography) in rat myocardial infarct model; type: in vivo, rats; details: 26 weeks treatment
Protocol: as §1, §2

[7] = infarct animals, around the great respiratory tracts, day 224
[8] = infarct animals, great respiratory tracts, day 224

Compound: 17-α-acetoxy-6-methylpregna-4,6diene-3,20-dione [Megestrol acetate]
- survival in infarction surgery rats ([1]; in comparison to placebo): significantly improved the survival
- inflammation and mucus goblet cells of the lung (histopathology, in words) ([2]; infarct rats, vs placebo and Ramipril groups): a reduction in the number of mucus goblet cells and a reduced inflammation of the lung

Compound: CCOC(=O)[C@H](CCc1ccccc1)N[C@@H](C)C(=O)N1[C@H](C(=O)O)C[C@@H]2CCC[C@@H]21 [Ramipril]
- Body weight, end of study ([3]; MA 100 mg/kg/d, ramipril 1 mg/kg/d, in g): 575 ± 8
- Fat/tibia ([3]; NMR-scanning): 45.3 ± 5.9 g/cm
- Lean/tibia ([3]; NMR-scanning): 83.2 ± 2.5 g/cm
- tibia length ([3]; retarded growth): 4.3 cm
- Mortality ([1]; 26 weeks treatment from day 42, MA 100 mg/kg/d, ramipril 1 mg/kg/d): 13%
- average weight of the liquid in the lung [4]: 2396 mg
- average wet weight of the lung [4]: 3103 ± 281 mg
- Weight of animals normalised to tibia length at the end of the study (mean) ([5]; infarct animals): 133.2 g/cm tibia
- Weight of animals at the end of the study (mean) ([5]; infarct animals, gavage from day 42, MA 100 mg/kg/d, ramipril 1 mg/kg/d): 575.0 g
- Weight of animals at the end of the study (mean) ([5]; sham-surgery animals): 567.2 g
- Weight of animals normalised to tibia length at the end of the study (mean) ([5]; sham-surgery animals): 135.0 g/cm tibia
- CO/BW [6]: 178 ± 8^$ ml/min/kg
- EF [6]: 40 ± 2%
- Inflammation: number of animals graded little [2, 7]: 1
- Inflammation: number of animals graded medium [2, 7]: 2
- Inflammation: number of animals graded strong [2, 7]: 2
- Inflammation: number of animals graded very strong [2, 7]: 18
- Mucus goblet cells: number of animals graded medium [2, 8]: 7
- Mucus goblet cells: number of animals graded strong [2, 8]: 6
- Mucus goblet cells: number of animals graded very strong [2, 8]: 10
- Emphysema: number of animals graded little ([2]; infarct animals, lung, day 224): 3
- Emphysema: number of animals graded medium ([2]; infarct animals, lung, day 224): 6
- Emphysema: number of animals graded none ([2]; infarct animals, lung, day 224): 8
- Emphysema: number of animals graded strong ([2]; infarct animals, lung, day 224): 4
- Emphysema: number of animals graded very strong ([2]; infarct animals, lung, day 224): 2
- Fibrosis: number of animals graded little ([2]; infarct animals, lung, day 224): 5
- Fibrosis: number of animals graded medium ([2]; infarct animals, lung, day 224): 4
- Fibrosis: number of animals graded none ([2]; infarct animals, lung, day 224): 12
- Fibrosis: number of animals graded strong ([2]; infarct animals, lung, day 224): 2
